Test results as given in US6903052B2, “Nematicidal compositions and methods” (Divergence, Inc., priority 2002, dated 2005).

Assays:
tomato seedlings = assay: Phytotoxicity evaluation on tomato seedlings; assay type: in vivo; settings: 250 μl of 1% emulsion applied to stem-media interface of two-week seedlings
Procedure: Sterilized tomato seeds were germinated in magenta jars containing Gamborg's agar media. After two weeks of growth, seedlings were treated with 250 μl of 1% fatty acid methyl ester emulsion (nonanoic acid, ricinoleic acid, ricinelaidic acid, oleic acid, or a control emulsion lacking any fatty acid), applied directly to the stem-media interface. Tomato seedlings were scored at various times after application of emulsions.

H. glycines = assay: Nematicidal activity of fatty acid methyl ester emulsions, spectrum (Example 8); assay type: cell-based, Heterodera glycines; settings: H. glycines 2nd stage juveniles, scored at 48 hours
Procedure: Briefly, the indicated fatty acid emulsions were added and rapidly mixed by swirling. Nematode viability was scored by visual observation and motility assays 24 hours following addition of emulsions (48 hours for plant parasitic nematodes Meloidogyne and Heterodera species). The fatty acid emulsions tested were methyl esters of nonanoic (pelargonic) acid, ricinelaidic acid, ricinoleic acid, vernolic acid, linoleic acid, and oleic acid. […] Results shown are mean % values obtained from multiple independent experiments
The Caenorhabiditis elegans were mixed stage populations. Similar effects seen on several other free-living nematode species. The Parastrongyloides trichosuri (parasite of Australian bushtail possum) were dauer-like infective 3rd stage larva. Similar effects are also seen against free-living stages. The Meloidogyne incognita and Meloidogyne javanica (root knot nematode) were 2nd stage juveniles (dauer-like infective stage). The Heterodera glycines (soybean cyst nematode) were 2nd stage juveniles (dauer-like infective stage). Finally, the Pratylenchus scribneri (corn lesion nematode) were mixed stage populations.

B. malayi = assay: Nematicidal activity of tween-based emulsions against microfilarial nematodes; assay type: cell-based, Brugia malayi
Procedure: To each well, tween-based fatty acid emulsions were added and rapidly mixed by swirling. Nematode microfilaria viability was scored by visual observation of motility at 24 and 48 hours following addition of emulsions. The fatty acid emulsions tested were methyl esters of ricinoleic acid, vernolic acid, ricinelaidic acid, oleic acid, and control emulsions lacking fatty acids. The results of this study are presented in Table 7 as the percentage of non-motile microfilaria 24 hours after inoculation and in Table 8 as the percentage of non-motile microfilaria 48 hours after inoculation

SMILES: CCCCCCC(O)C/C=C\CCCCCCCC(=O)OC (stereo not drawn) [Ricinoleic Acid (C18-methyl ester), 12-hydroxy-cis-9-octadecenoic acid methyl ester]
- Visible effects on tomato seedlings (tomato seedlings): none of the tomatoes treated with the other fatty acid methyl ester emulsions showed visible effects
- % Worm Death (24 hr) (H. glycines; 0.001% solution): ˜40%
- % Worm Death (24 hr) (H. glycines; 0.01% solution): ˜60%
- % Worm Death (24 hr) (H. glycines; 0.1% solution): ˜60%
- percentage of non-motile microfilaria (B. malayi; 24 hrs post-inoculation, 0.0008%): 0%
- percentage of non-motile microfilaria (B. malayi; 24 hrs post-inoculation, 0.0016%): 24.7%
- percentage of non-motile microfilaria (B. malayi; 24 hrs post-inoculation, 0.003%): 100%
- percentage of non-motile microfilaria (B. malayi; 24 hrs post-inoculation, 0.005%): 100%
- percentage of non-motile microfilaria (B. malayi; 24 hrs post-inoculation, 0.0067%): 100%
- percentage of non-motile microfilaria (B. malayi; 24 hrs post-inoculation, 0.008%): 100%
- percentage of non-motile microfilaria (B. malayi; 48 hrs post-inoculation, 0.0008%): 0%
- percentage of non-motile microfilaria (B. malayi; 48 hrs post-inoculation, 0.0016%): 64.2%
- percentage of non-motile microfilaria (B. malayi; 48 hrs post-inoculation, 0.003%): 100%
- percentage of non-motile microfilaria (B. malayi; 48 hrs post-inoculation, 0.005%): 100%
- percentage of non-motile microfilaria (B. malayi; 48 hrs post-inoculation, 0.0067%): 100%
- percentage of non-motile microfilaria (B. malayi; 48 hrs post-inoculation, 0.008%): 100%
- Microfilarialcidal activity (in words) (B. malayi; tween-based emulsions): strong microfilarialcidal activity
